Consider six molecules from US5118697A, “Cyclic beta-ketoamide ACAT inhibitors” (Warner-Lambert Company, priority 1991, dated 1992).

Structures are written as SMILES.

The target of the test is T1, acyl-CoA: cholesterol acyltransferase (ACAT) (Oryctolagus cuniculus, UniProt G1SFD9).
T1 construct: tissue preparation containing rabbit intestinal microsomes; from tissue; host or cells: rabbit intestinal microsomes
T1 sequence (G1SFD9 1-524): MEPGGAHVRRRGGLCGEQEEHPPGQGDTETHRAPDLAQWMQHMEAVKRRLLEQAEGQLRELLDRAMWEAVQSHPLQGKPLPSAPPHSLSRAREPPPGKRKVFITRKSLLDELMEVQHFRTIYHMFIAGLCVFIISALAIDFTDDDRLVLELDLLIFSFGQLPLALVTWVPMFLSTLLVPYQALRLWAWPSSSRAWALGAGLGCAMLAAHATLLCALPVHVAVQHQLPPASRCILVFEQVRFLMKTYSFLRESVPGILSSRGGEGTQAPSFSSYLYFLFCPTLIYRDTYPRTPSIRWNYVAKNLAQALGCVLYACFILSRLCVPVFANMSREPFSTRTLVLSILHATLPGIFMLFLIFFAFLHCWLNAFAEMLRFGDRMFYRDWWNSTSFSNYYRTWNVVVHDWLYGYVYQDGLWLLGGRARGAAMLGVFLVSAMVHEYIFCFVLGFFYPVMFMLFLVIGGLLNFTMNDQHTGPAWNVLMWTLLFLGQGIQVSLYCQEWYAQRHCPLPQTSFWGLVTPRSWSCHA
Put plainly: in vitro ACAT inhibition test: radiolabeled cholesterol oleate formed from radiolabeled oleic acid in rabbit intestinal microsomes. It counts as biochemical. The source says: As shown by the data presented below in Table 1, the compounds of the present invention are potent inhibitors of the enzyme acyl-CoA: cholesterol acyltransferase (ACAT), and are thus effective in inhibiting the esterification and transport of cholesterol across the intestinal cell wall. The compounds of the present invention are thus useful in pharmaceutical formulations for the treatment of hypercholesterolemia or atherosclerosis.
The ability of representative compounds of the present invention to inhibit ACAT was measured using an in vitro test more fully described in F. J. Field and R. G. Salone, Biochemica et Biophysica 712:557-570 (1982). The test assesses the ability of a test compound to inhibit the acylation of cholesterol by oleic acid by measuring the amount of radiolabeled cholesterol oleate formed from radiolabeled oleic acid in a tissue preparation containing rabbit intestinal microsomes.
One may read the IC50 as the point on the concentration scale where inhibition reaches its midpoint. A low value points to greater potency. With `CC(C)c1cccc(C(C)C)c1NC(=O)C1CCCC(CCCCCOc2ccccc2)(c2ccccc2)C1=O` (stereo not drawn) [Example 6, N-[2,6-bis (1-methylethyl)phenyl]-2-oxo-3-(5-phenoxypentyl)-3-phenylcyclohexanecarboxamide], 72 nM corresponded to half-maximal inhibition (IC50). Next, `CC(C)c1cccc(C(C)C)c1NC(=O)C1CCCC(Cc2ccccn2)(Cc2ccccn2)C1=O` (stereo not drawn) [Example 5, N-[2,6-bis(1-methylethyl)phenyl]-2-oxo-3,3-bis(2-pyridinylmethyl)cyclohexanecarboxamide]: 940 nM.

Take `CC(C)c1cccc(C(C)C)c1NC(=O)C1CCCC(Cc2ccccn2)(c2ccccc2)C1=O` (stereo not drawn) [Example 4, N-[2,6-bis(1 methylethyl)phenyl]-2-oxo-3-phenyl-3-(2-pyridinylmethyl)cyclohexanecarboxamide]: 259 nM corresponded to half-maximal inhibition (IC50).

For `CC(C)c1cccc(C(C)C)c1NC(=O)C1CCCC(c2ccccc2)(c2ccccn2)C1=O` (stereo not drawn) [Example 2, N-[2,6 bis(1-methylethyl)phenyl]-2-oxo-3-phenyl-3-(2-pyridinyl)cyclohexanecarboxamide], the midpoint of inhibition, the IC50, lay at 1000 nM.

Turning to `CC(C)c1cccc(C(C)C)c1NC(=O)C1CCCC(Cc2c(CCN(C)C)n(C)c3ccccc23)(c2ccccc2)C1=O` (stereo not drawn) [Example 3, N-[2,6 bis(1-methylethyl)phenyl-3-[2-[2-(dimethylamino)ethyl]-1-methyl-1H-indol-3-yl]methyl]-2-oxo-3-phenylcyclohexanecarboxamide], the IC50 is greater than 1000 nM. In turn, `CC(C)c1cccc(C(C)C)c1NC(=O)C1CCC(c2ccccc2)(c2ccccn2)C1=O` (stereo not drawn) [Example 1] returned an IC50 greater than 1000 nM.
